Results as given in US10544113B2 (priority 2016, dated 2020).
Read-outs that look alike come from different tables or passages of the source.

Biological target: mu-opioid receptor (MOR) (Homo sapiens (Human), UniProt P35372)
Assay: cell-based
Details: combined with a MOR antagonist; for AUC: AUC of [Ca2+]i fluorescence, CHO-K1/MOR/Gα15 cells
Procedure: In an exemplary in vitro screening method for identifying antagonist-to-agonist allosteric modifiers of a MOR, cells that express a MOR are treated with a test compound and a MOR antagonist in a cellular calcium fluorescent assay and fluorescence intensity is then measured to determine whether the MOR is activated. A test compound is identified as an antagonist-to-agonist allosteric modifier of the MOR if the MOR is activated.
EC50 herein refers to the concentration of a compound that induces a response halfway between the baseline and the maximum after a specified exposure time. AUC refers to the area under the response curve, an indication of the compound's capability of activating a MOR when combined with a MOR antagonist.
Human embryonic kidney 293 (HEK-293) cells constitutively expressing MOR (HEK-MOR) and DOR (HEK-DOR) (kindly provided by Dr. Ping-Yee Law, University of Minnesota, USA) were cultured in high-glucose Dulbecco's modified Eagle's medium (DMEM, GIBCO) supplemented with 400 μg/mL G418 (Sigma), 2 mM L-glutamine and P/S/F (100 units/mL penicillin, 100 μg/mL streptomycin, 10% fetal bovine serum). Chinese hamster ovary (CHO)-K1 cells, stably expressing hMOR and Gα15 (CHO-K1/MOR/Gα15), were cultured in F12 medium (GIBCO) supplemented with 10 μg/mL Hygromycin B (Invivogen), 20 μg/mL Zeocin (Invivogen) P/S/F (100 units/mL penicillin, 100 μg/mL streptomycin, 10% fetal bovine serum). The cultures were incubated at 37° C. in a humidified 5% CO2 incubator.
One day before the assay, CORNING® black with clear flat bottom 96-well assay plates were coated with a 0.1 mg/mL Poly-L-Lysine solution. CHO-K1/MOR/Gα15 cells were suspended in the F12 medium and plated at a density of ˜8×10^4 cells/well in 200 μL medium. Cells were incubated in a humidified atmosphere of 10% CO2 at 37° C. overnight so as to reach an 80-90% confluent cell monolayer before assay. At the day of assay, 150 μL medium/well was removed from plate. To each well, 50 μL FLIPR® calcium assay reagent dissolved in 1× assay buffer (HBSS: KCl 5 mM, KH2PO4 0.3 mM, NaCl 138 mM, NaHCO3 4 mM, Na2HPO4 0.3 mM, d-glucose 5.6 mM, with additional 20 mM HEPES and 13 mM CaCl2, pH 7.4), with 2.5 mM probenecid was added and the plate was incubated at 37° C. for 1 h. Compounds and other reagents were dissolved in the assay buffer. Using a FlexStationIII (Molecular Devices Corp.), the [Ca^2+]i fluorescence increases after robotic injections of compounds or other reagents were monitored every 1.52 s interval with excitation wavelength at 485 nm and with emission wavelength at 525 nm. The [Ca^2+]i fluorescence was measured up to 90 s after agonist injection.
A CHO-K1 cell line, expressing a MOR and Gα15 (GenScript), was used to set up a sensitive high-throughput screen (HTS) system. In a FLIPR® calcium assay using CHO-K1/MOR/Gα15 cells, activation of MOR elicits an intracellular calcium release leading to an increase in the relative fluorescence units (FRU). […] The HTS was performed in the absence or presence of an opioid antagonist, naloxone (25 nM), to identify antagonist to agonist allosteric modifiers (AAM).
A CHO-K1 cell line, expressing a MOR and Gα15 (GenScript), was used to set up a sensitive assay system for detecting μ-opioid receptor activation. […] The assay was performed in the presence of an opioid antagonist, i.e., naloxone (25 nM), naltrexone (20 nM), samidorphan (10 nM), naloxonazine dihydrochloride (20 nM), β-funaltrexamine hydrochloride (20 nM), cyprodime hydrochloride (500 nM), or nalmefene (20 nM), in combination with compound 58, an antagonist to agonist allosteric modifier (AAM), to identify activation of the μ-opioid receptor.

Sequence of mu-opioid receptor (MOR) (P35372 whole entry): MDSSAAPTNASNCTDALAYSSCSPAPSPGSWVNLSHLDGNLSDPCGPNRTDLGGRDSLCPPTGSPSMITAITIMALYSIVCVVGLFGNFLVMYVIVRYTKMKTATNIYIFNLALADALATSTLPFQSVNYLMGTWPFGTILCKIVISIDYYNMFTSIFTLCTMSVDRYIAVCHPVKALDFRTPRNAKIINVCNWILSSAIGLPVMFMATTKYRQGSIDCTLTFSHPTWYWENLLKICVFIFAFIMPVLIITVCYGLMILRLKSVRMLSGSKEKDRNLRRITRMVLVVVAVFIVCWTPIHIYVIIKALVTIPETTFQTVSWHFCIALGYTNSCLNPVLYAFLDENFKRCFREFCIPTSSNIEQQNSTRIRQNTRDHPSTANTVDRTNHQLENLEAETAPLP

Row | SMILES | AUC | EC50 (EC50, CHO-K1/MOR/Gα15 cells) | FLIPR Ca^2+ AUC | EC50 (read-out: FLIPR Ca^2+ EC50)
1 | CCCCS(=O)(=O)NC(=O)c1ccc(N2C(=O)CSC2c2ccc(F)cc2)c(C)c1 (stereo not shown) [Example 163] | more than 5000 | < 10 µM | 11389 | 1.2 µM
2 | Cc1cc(C(=O)NS(=O)(=O)C(C)C)ccc1N1C(=O)CSC1c1ccc(F)cc1 (stereo not shown) [Example 165] | more than 5000 |  | 11927 | 22.6 µM
3 | Cc1cc(C(=O)NS(=O)(=O)CC(C)C)ccc1N1C(=O)CSC1c1ccc(F)cc1 (stereo not shown) [Example 167] | more than 5000 | < 10 µM | 9905 | 3.4 µM
4 | Cc1cc(C(=O)NS(=O)(=O)C2CC2)ccc1N1C(=O)CSC1c1ccc(F)cc1 (stereo not shown) [Example 169] | more than 5000 | < 10 µM | 13189 | 3 µM
5 | Cc1cc(C(=O)NS(=O)(=O)C2CCCCC2)ccc1N1C(=O)CSC1c1ccc(F)cc1 (stereo not shown) [Example 171] | more than 5000 | < 10 µM | 10272 | 3.7 µM
6 | Cc1cc(C(=O)NS(N)(=O)=O)ccc1N1C(=O)CSC1c1ccc(F)cc1 (stereo not shown) [Example 173] |  |  | 14841 | 5.3 µM
7 | Cc1cc(C(=O)NS(=O)(=O)N(C)C)ccc1N1C(=O)CSC1c1ccc(F)cc1 (stereo not shown) [Example 174] |  |  | 12074 | 3.8 µM
8 | Cc1cc(C(=O)NS(=O)(=O)C(F)(F)F)ccc1N1C(=O)CSC1c1ccc(F)cc1 (stereo not shown) [Example 175] |  |  | 13866 | 1.6 µM
9 | Cc1cc(C(=O)NS(=O)(=O)Cc2ccccc2)ccc1N1C(=O)CSC1c1ccc(F)cc1 (stereo not shown) [Example 176] |  |  | 10601 | 2 µM
10 | Cc1cc(C(=O)NS(=O)(=O)Cc2cccc(F)c2)ccc1N1C(=O)CSC1c1ccc(F)cc1 (stereo not shown) [Example 177] |  |  | 16276 | 2.2 µM
11 | Cc1cc(C)cc(CS(=O)(=O)NC(=O)c2ccc(N3C(=O)CSC3c3ccc(F)cc3)c(C)c2)c1 (stereo not shown) [Example 179] | more than 5000 | < 10 µM | 14442 | 1.1 µM
12 | Cc1cc(C(=O)NS(=O)(=O)c2ccccc2)ccc1N1C(=O)CSC1c1ccc(F)cc1 (stereo not shown) [Example 183] | more than 5000 | < 10 µM | 12230 | 1.9 µM
13 | Cc1ccc(S(=O)(=O)NC(=O)c2ccc(N3C(=O)CSC3c3ccc(F)cc3)c(C)c2)cc1 (stereo not shown) [Example 185] |  |  | 18048 | 0.6 µM
14 | CCc1ccc(S(=O)(=O)NC(=O)c2ccc(N3C(=O)CSC3c3ccc(F)cc3)c(C)c2)cc1 (stereo not shown) [Example 186] |  |  | 18048 | 0.6 µM
15 | Cc1cc(C(=O)NS(=O)(=O)c2ccc(C#N)cc2)ccc1N1C(=O)CSC1c1ccc(F)cc1 (stereo not shown) [Example 187] |  |  | 12927 | 3.3 µM
16 | COc1ccc(S(=O)(=O)NC(=O)c2ccc(N3C(=O)CSC3c3ccc(F)cc3)c(C)c2)cc1 (stereo not shown) [Example 188] |  |  | 21983 | 0.7 µM
17 | Cc1cc(C(=O)NS(=O)(=O)c2ccc(OC(F)(F)F)cc2)ccc1N1C(=O)CSC1c1ccc(F)cc1 (stereo not shown) [Example 189] |  |  | 9544 | 1.1 µM
18 | CCOC(=O)c1ccc(S(=O)(=O)NC(=O)c2ccc(N3C(=O)CSC3c3ccc(F)cc3)c(C)c2)cc1 (stereo not shown) [Example 190] |  |  | 16512 | 2.4 µM
19 | Cc1cc(C)c(S(=O)(=O)NC(=O)c2ccc(N3C(=O)CSC3c3ccc(F)cc3)c(C)c2)c(C)c1 (stereo not shown) [Example 192] | more than 5000 | < 10 µM | 11866 | 1.4 µM
20 | Cc1cc(C(=O)NS(=O)(=O)c2cccc(F)c2)ccc1N1C(=O)CSC1c1ccc(F)cc1 (stereo not shown) [Example 194] | more than 5000 | < 10 µM | 19019 | 0.2 µM

Row | SMILES | AUC | EC50 (EC50, CHO-K1/MOR/Gα15 cells) | FLIPR Ca^2+ AUC | EC50 (read-out: FLIPR Ca^2+ EC50)
21 | Cc1cc(C(=O)NS(=O)(=O)c2ccc(F)cc2)ccc1N1C(=O)CSC1c1ccc(F)cc1 (stereo not shown) [Example 196] | more than 5000 | < 10 µM | 15620 | 1.1 µM
22 | Cc1cc(C(=O)NS(=O)(=O)c2ccc(Cl)cc2)ccc1N1C(=O)CSC1c1ccc(F)cc1 (stereo not shown) [Example 198] | more than 5000 | < 10 µM | 13313 | 0.5 µM
23 | Cc1cc(C(=O)NS(=O)(=O)c2ccc(Br)cc2)ccc1N1C(=O)CSC1c1ccc(F)cc1 (stereo not shown) [Example 200] | more than 5000 | < 10 µM | 12340 | 0.2 µM
24 | CC(=O)Nc1ccc(S(=O)(=O)NC(=O)c2ccc(N3C(=O)CSC3c3ccc(F)cc3)c(C)c2)cc1 (stereo not shown) [Example 202] | more than 5000 | < 10 µM | 17087 | 0.6 µM
25 | Cc1cc(C(=O)NS(=O)(=O)c2ccc(F)cc2F)ccc1N1C(=O)CSC1c1ccc(F)cc1 (stereo not shown) [Example 206] |  | < 10 µM |  | 
26 | Cc1cc(S(=O)(=O)NC(=O)c2ccc(N3C(=O)CSC3c3ccc(F)cc3)c(C)c2)c(C)cc1Cl (stereo not shown) [Example 208] |  | < 10 µM |  | 
27 | Cc1cc(C(=O)NS(=O)(=O)c2cccc3c(N(C)C)cccc23)ccc1N1C(=O)CSC1c1ccc(F)cc1 (stereo not shown) [Example 210] | more than 5000 | < 10 µM | 9425 | 0.7 µM
28 | Cc1cc(C(=O)NS(=O)(=O)c2cccnc2)ccc1N1C(=O)CSC1c1ccc(F)cc1 (stereo not shown) [Example 211] | more than 5000 | < 10 µM | 8779 | 0.3 µM
29 | Cc1cc(C(=O)NS(=O)(=O)c2c(C)noc2C)ccc1N1C(=O)CSC1c1ccc(F)cc1 (stereo not shown) [Example 213] | more than 5000 | < 10 µM | 9005 | 0.9 µM
30 | CCONC(=O)c1ccc(N2C(=O)CSC2c2ccc(F)cc2)c(C)c1 (stereo not shown) [Example 215] |  |  | 10945 | 4.1 µM
31 | Cc1cc(C(=O)NOCc2ccccc2)ccc1N1C(=O)CSC1c1ccc(F)cc1 (stereo not shown) [Example 217] |  |  | 9543 | 4.1 µM
32 | Cc1cc(C(=O)NO)ccc1N1C(=O)CSC1c1ccc(F)cc1 (stereo not shown) [Example 219] |  |  | 14222 | 6.4 µM
33 | Cc1cc(C(=O)NN)ccc1N1C(=O)CSC1c1ccc(F)cc1 (stereo not shown) [Example 220] |  |  | 13871 | 4.9 µM
34 | Cc1cc(-c2nnn[nH]2)ccc1N1C(=O)CSC1c1ccc(F)cc1 (stereo not shown) [Example 221] |  |  | 8284 | 0.2 µM
35 | Cc1cc(-c2ccco2)ccc1N1C(=O)CSC1c1ccc(F)cc1 (stereo not shown) [Example 224] | more than 5000 |  | 7384 | 11.7 µM
36 | Cc1nnc(-c2ccc(N3C(=O)CSC3c3ccc(F)cc3)c(C)c2)o1 (stereo not shown) [Example 227] |  |  | 15410 | 5.5 µM
37 | Cc1cc(-c2nnc(C(F)(F)F)o2)ccc1N1C(=O)CSC1c1ccc(F)cc1 (stereo not shown) [Example 228] |  |  | 7035 | 8.6 µM
38 | CCCOC(=O)c1ccc(N2C(=O)CSC2c2ccc(F)cc2)c(C)c1 (stereo not shown) [Example 229] |  |  | 13237 | 9.7 µM
39 | Cc1cc(C(=O)OC(C)C)ccc1N1C(=O)CSC1c1ccc(F)cc1 (stereo not shown) [Example 231] |  | < 10 µM |  | 
40 | CCCCOC(=O)c1ccc(N2C(=O)CSC2c2ccc(F)cc2)c(C)c1 (stereo not shown) [Example 234] |  |  | 10062 | 9 µM
